# Values of other authors, collected in patent US10472401B2, “Peptides and combination of peptides for use in immunotherapy against ovarian cancer and other cancers” (immatics biotechnologies GmbH, priority 2015, dated 2019).
# What was measured:
# [1] = molecular target: T1, PLA2G6 (Homo sapiens, UniProt O60733); conditions: cited from earlier work
# T1 construct: host or cells: ovarian cancer cells
# T1 sequence (O60733 1-806): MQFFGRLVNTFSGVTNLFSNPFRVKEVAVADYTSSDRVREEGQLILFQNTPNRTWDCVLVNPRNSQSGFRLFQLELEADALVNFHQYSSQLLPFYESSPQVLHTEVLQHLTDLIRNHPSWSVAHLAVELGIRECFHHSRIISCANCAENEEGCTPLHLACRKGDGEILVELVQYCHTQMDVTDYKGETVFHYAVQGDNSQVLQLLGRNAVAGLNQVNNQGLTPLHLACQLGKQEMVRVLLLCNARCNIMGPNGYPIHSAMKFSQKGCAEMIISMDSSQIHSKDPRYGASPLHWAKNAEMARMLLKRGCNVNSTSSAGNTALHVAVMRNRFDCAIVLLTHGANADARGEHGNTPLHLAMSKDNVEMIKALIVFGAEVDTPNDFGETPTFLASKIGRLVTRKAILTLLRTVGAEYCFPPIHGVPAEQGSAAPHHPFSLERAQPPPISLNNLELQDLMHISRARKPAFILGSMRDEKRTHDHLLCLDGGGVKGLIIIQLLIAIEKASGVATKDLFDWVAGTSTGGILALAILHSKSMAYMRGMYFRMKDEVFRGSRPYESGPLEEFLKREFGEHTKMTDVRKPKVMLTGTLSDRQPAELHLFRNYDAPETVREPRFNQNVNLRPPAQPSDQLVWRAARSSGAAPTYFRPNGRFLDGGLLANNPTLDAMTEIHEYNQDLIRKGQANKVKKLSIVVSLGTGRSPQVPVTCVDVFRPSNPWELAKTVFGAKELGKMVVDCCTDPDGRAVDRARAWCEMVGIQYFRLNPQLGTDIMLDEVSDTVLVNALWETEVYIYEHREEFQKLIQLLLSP
# [2] = tested on: human tumor cell lines; conditions: cited from earlier work
# [3] = tested on: UBE2V1; conditions: cited from earlier work
# [4] = molecular target: ATR (Homo sapiens, UniProt Q13535); conditions: pancreatic cancer cells in vitro, pancreatic tumor xenografts in vivo; cited from earlier work
# [5] = tested on: lung tumorigenesis; conditions: TLE1 transgenic mice; cited from earlier work
# [6] = molecular target: T2, ALDH5A1 (Homo sapiens, UniProt P51649); conditions: cited from earlier work
# T2 construct: host or cells: breast ductal carcinoma models
# T2 sequence (P51649 48-535): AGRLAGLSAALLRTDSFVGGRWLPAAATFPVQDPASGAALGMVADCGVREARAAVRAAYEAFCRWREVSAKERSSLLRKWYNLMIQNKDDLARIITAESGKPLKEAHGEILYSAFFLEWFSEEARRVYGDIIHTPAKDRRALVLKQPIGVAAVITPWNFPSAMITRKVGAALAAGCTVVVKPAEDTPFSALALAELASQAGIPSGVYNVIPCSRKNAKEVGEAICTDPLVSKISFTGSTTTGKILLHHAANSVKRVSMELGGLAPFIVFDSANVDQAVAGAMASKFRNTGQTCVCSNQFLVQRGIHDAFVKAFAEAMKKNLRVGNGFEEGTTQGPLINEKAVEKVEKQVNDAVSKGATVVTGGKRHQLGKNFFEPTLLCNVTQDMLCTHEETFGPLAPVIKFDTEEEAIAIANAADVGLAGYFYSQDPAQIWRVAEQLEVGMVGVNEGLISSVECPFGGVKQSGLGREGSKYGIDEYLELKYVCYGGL
# Sequence of ATR (Q13535 whole entry): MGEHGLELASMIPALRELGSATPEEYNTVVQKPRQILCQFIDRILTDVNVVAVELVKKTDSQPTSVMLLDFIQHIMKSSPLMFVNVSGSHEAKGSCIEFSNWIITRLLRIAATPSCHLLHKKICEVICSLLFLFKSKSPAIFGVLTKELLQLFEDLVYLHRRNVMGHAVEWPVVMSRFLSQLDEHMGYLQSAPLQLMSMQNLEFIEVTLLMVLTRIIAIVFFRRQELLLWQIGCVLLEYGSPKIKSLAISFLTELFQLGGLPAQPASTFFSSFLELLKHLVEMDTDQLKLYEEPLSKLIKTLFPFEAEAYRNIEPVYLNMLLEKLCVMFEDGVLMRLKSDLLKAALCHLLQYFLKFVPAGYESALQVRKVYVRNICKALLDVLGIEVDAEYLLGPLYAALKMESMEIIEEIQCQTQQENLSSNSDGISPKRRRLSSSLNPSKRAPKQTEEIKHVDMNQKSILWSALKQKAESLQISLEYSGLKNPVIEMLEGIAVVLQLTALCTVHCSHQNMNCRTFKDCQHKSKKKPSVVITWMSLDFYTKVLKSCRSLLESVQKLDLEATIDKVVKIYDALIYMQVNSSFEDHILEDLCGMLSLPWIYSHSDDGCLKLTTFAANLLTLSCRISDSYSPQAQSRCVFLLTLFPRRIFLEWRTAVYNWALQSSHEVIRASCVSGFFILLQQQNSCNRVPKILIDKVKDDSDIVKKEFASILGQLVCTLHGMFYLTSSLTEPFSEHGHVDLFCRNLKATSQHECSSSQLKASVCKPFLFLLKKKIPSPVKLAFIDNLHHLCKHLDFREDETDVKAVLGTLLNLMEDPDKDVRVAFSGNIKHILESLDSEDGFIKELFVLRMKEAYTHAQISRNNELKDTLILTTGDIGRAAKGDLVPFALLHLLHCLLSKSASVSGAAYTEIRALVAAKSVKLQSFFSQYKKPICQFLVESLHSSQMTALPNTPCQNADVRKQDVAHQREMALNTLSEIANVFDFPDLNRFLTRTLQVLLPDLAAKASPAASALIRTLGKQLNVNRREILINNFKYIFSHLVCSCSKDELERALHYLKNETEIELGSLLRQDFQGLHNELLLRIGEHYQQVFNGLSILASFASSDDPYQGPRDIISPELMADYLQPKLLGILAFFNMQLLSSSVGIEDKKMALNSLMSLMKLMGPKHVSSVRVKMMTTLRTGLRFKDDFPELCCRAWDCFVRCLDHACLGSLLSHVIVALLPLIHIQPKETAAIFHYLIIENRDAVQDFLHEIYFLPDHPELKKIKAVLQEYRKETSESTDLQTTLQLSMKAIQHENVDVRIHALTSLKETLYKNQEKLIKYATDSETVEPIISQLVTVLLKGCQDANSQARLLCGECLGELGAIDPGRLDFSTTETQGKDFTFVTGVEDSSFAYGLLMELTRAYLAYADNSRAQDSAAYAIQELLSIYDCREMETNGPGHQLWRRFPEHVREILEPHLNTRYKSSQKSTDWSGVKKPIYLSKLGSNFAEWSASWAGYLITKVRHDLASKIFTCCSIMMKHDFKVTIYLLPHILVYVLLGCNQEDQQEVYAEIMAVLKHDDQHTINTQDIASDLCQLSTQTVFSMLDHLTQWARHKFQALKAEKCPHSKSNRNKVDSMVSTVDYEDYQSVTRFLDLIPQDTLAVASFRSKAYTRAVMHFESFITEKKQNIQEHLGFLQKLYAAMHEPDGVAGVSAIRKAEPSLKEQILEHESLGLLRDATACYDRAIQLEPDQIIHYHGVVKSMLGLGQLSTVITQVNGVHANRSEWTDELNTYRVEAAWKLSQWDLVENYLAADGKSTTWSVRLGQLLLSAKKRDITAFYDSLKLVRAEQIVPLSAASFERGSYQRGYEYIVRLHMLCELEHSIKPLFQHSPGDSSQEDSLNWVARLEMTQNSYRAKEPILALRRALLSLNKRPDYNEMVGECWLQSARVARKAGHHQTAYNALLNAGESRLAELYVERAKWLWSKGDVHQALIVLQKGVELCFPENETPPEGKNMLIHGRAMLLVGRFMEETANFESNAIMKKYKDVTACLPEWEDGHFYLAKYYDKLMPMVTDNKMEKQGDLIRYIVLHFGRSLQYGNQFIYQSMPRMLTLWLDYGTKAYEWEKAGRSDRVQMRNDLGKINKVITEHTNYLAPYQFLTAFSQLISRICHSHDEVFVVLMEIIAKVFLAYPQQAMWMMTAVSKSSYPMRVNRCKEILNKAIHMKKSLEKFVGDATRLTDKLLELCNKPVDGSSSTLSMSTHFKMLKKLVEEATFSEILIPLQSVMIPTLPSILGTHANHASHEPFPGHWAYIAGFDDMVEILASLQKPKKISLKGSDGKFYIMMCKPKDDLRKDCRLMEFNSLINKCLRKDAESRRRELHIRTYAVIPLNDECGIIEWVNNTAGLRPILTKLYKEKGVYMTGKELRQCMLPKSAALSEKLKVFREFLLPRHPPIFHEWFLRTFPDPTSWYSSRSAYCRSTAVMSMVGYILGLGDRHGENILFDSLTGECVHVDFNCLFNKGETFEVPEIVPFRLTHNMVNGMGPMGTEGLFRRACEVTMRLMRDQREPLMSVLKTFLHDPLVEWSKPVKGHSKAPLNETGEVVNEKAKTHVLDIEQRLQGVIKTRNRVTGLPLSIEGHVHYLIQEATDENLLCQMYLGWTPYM
# Sequence of ATR (Q8WXE1 whole entry partner): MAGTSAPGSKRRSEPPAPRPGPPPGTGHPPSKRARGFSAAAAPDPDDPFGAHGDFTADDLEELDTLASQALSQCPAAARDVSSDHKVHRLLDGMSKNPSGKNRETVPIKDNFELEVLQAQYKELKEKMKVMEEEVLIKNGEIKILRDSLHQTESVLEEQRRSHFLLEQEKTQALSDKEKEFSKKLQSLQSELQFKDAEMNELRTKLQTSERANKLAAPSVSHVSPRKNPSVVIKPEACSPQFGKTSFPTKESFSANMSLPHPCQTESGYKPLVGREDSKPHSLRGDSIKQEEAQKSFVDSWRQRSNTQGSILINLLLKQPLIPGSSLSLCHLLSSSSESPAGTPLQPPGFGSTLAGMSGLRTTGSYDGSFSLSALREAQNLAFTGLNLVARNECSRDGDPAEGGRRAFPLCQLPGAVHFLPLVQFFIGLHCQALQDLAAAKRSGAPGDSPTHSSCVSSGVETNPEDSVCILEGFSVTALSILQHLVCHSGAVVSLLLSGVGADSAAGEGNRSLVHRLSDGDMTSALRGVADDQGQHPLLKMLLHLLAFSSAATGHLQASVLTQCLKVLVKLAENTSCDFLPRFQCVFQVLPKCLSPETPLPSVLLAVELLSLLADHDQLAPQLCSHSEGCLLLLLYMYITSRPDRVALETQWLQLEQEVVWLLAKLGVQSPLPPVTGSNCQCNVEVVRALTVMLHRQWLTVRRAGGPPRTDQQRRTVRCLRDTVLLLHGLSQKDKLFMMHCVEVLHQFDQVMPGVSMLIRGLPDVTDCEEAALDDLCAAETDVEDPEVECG
smiles,measurement,setting,value
O=C1O/C(=C/Br)CCC1c1cccc2ccccc12 (stereo not drawn) [Bromoenol lactone],apoptosis and cell cycle of ovarian cancer cells,[1],increase in apoptosis in ovarian cancer cells as well as inducing cell cycle arrest in S- and G2/M-phases
CN1CC[C@H](c2c(O)cc(O)c3c(=O)cc(-c4ccccc4Cl)oc23)[C@H](O)C1 [Flavopiridol],human tumor cell proliferation,[2],inhibition of human tumor cell proliferation
Cc1ccc(S(=O)(=O)c2ccc([N+](=O)[O-])o2)cc1 [NSC697923],proliferation and survival of diffuse large B-cell lymphoma cells,[3],inhibit proliferation and survival of diffuse large B-cell lymphoma cells
CNCc1ccc(-c2cc(-c3nc(-c4ccc(S(=O)(=O)C(C)C)cc4)cnc3N)on2)cc1 [VE-822],radiosensitization and chemosensitization,[4],radiosensitize and chemosensitize pancreatic cancer cells in vitro and pancreatic tumor xenografts in vivo
CC(/C=C/C(=O)NO)=C\[C@@H](C)C(=O)c1ccc(N(C)C)cc1 [trichostatin A],lung tumorigenesis,[5],significantly inhibited lung tumorigenesis
CCCC(CCC)C(=O)O [valproic acid],net proliferation of breast ductal carcinoma models,[6],inhibit net proliferation
